Assay results taken from ChEMBL document CHEMBL4418498, “Halogenated benzotropolones as atg4b inhibitors” (2018).

Key:
[1] = target: T1, Cysteine protease ATG4B (Homo sapiens) (UniProt Q9Y4P1); experiment: Inhibition of Atg4B in human Jurkat T-cells assessed as reduction in everolimus-induced autophagy at […] incubated for 16 hrs by CYTO-ID-based phenotypical screening assay relative to control everolimus alone (reference value: 1 No unit); assay type: cell-based
T1 sequence (whole entry): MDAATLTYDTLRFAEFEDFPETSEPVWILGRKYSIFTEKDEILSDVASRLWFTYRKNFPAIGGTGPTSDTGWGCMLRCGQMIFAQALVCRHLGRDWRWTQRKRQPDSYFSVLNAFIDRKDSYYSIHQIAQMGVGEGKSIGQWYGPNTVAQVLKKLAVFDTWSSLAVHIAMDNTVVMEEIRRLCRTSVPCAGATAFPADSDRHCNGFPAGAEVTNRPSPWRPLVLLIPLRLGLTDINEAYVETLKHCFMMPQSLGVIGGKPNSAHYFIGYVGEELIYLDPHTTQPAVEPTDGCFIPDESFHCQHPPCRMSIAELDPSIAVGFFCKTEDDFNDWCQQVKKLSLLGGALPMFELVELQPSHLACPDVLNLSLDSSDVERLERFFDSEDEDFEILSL

[2] = Metabolic stability in mouse liver microsomes assessed as parent compound recovery after 30 mins in presence of NADPH regenerating system by LC-MS/MS analysis; assay type: ADME, Microsome; details: read-out: Drug recovery

Row | Structure (SMILES) | Ratio [1] | remaining at 0.5 h [2] [%]
1 | Cn1cnc(N)c2ncnc1-2 | 0.57 | 
2 | O=C(O)c1cc(O)c(=O)c2c(O)c(O)c(Br)cc2c1 |  | 100
